Test results taken from patent US20250009844A1, “MATURATION OF MUCOSAL DEFENSE AND GUT/LUNG FUNCTION IN THE PRETERM INFANT” (Novozymes A/S, priority 2017, published 2025).
No end group written: not given here.

How the values were obtained:
BALB/c mice = experiment: Prophylactic treatment in murine house dust mite driven model of allergic asthma (Example 5); format: in vivo; conditions: for Increase of airway resistance (airway hyper responsiveness) / Decrease of pulmonary compliance: vs HDM challenged vehicle
Procedure: Treatment regime: Female 7-10 weeks old BALB/c mice were randomly allocated into 5study groups one day prior to study start and subcutaneously (SC) sensitized to house dust mite (100 μg HDM in 200 uL saline plus Freund's complete adjuvant in 0.9% saline). The mice were treated with hBD-2 orally and intranasally respectively at a dose of 1.2 mg/kg/day (0.4 mg/kg TID) starting on day 12 in the morning and continued TID at approximately 6 hours intervals. The last dose was administered on day 14 one hour prior to challenge. The total number of doses was 8 doses or a total of […] hBD-2.Mice were then intranasally (IN) challenged with HDM on day 14 (HDM 25 μg in 50 μL of saline) (FIG. 2).
Airway inflammation: At 48 hours post challenge, bronchoalveolar lavage was performed washing the lungs with 3 volumes of cold PBS (0.4; 0.3 and 0.3 mL, total 1 mL). Total and differential leucocyte cell counts were determined on an automated haematological analyser Sysmex XT-2000iV.
Lung function: Starting 48 hours after HDM challenge, measurements of lung resistance and lung compliance were carried out after methacholine challenge (3.125 MCH1; 6.25 MCH2; 12.5 MCH3 and 25 mg/mL MCH4) by anaesthetized, cannulated mice using DSI's Buxco Finepoint RC system. Data are represented as airway resistance at […] methacholine and as dose responsive curves. Lung sampling for cytokine analysis: After completion of every BAL, lungs were removed from the thorax, snap frozen in liquid nitrogen and stored frozen at −80 degrees Celsius until analysis of cytokine concentration of TNF-α, IL-4, IL-5, IL-6, IL-9, IL-13 and IL-33 in lung homogenate by ELISA.

[1] = system: bacteria localization at the surface of the intestinal mucosa; experiment: Localization of bacteria by FISH with mucin immunostaining, lysis zone (Example 14); format: in vivo; conditions: orally administered; compared with mice on a low fat or western diet
Procedure: Immunostaining of mucins and localization of bacteria by FISH Mucus immunostaining was paired with fluorescent in situ hybridization (FISH), as previously described in order to analyze bacteria localization at the surface of the intestinal mucosa. Briefly, colonic tissues (proximal colon, 2nd cm from the cecum) without fecal material were placed in methanol-Carnoy's fixative solution (60% methanol, 30% chloroform, 10% glacial acetic acid) for a minimum of 3 hours at room temperature. Tissues were then washed in methanol 2×30 min, ethanol 2×15 min, ethanol/xylene (1:1), 15 min and xylene 2×15 min, followed by embedding in Paraffin with a vertical orientation. Five μm sections were performed and dewax by preheating at 60° C. for 10 min, followed by xylene 60° C. for 10 min, xylene for 10 min and 99.5% ethanol for 10 minutes. Hybridization step was performed at 50° C. overnight with EUB338 probe (5′-GCTGCCTCCCGTAGGAGT-3′, with a 5′ labeling using Alexa 647) diluted to a final concentration of 10 μg/mL in hybridization buffer (20 mM Tris-HCl, pH 7.4, 0.9 M NaCl, 0.1% SDS, 20% formamide). After washing 10 min in wash buffer (20 mM Tris-HCl, pH 7.4, 0.9 M NaCl) and 3×10 min in PBS, PAP pen (Sigma-Aldrich) was used to mark around the section and block solution (5% fetal bovine serum in PBS) was added for 30 min at 4° C. […]

[2] = Prophylactic high fat diet murine model, weight change (Example 1); format: in vivo, mice; conditions: HFD plus hBD-2 1,2 mg per kg per day in diet vs HFD reference group; 10 week study period; p=0.0028
Excerpt: The overall experimental design is shown in FIG. 1, top panel “Prophylactic study”. Mice: Mice were housed in trios, 4 cages per group. Feed intake was registered daily just before lights were turned off at 6 pm. Individual mice were subjected to experimental procedures in altered order both group and cage wise. Mice were kept at room temperature under a 12-hour light/dark cycle at SPF standard conditions. Diets: For dosing, the average weight was estimated to be 25 grams per mouse. Mice eat approximately 3 grams of feed per mouse per day.
Treatment regime: Mice were fed either a high fat diet (HFD) or a low fat (LF) control diet. The HFD contained 4 subgroups; a) hBD-2, b) HD5, c) hBD-2/HD5 and d) standard HFD without supplementation of defensins. Defensin concentration was 1,2 mg hBD-2 per kg mouse per day. HD5 was given in equimolar concentration to hBD-2.

[3] = intranasal administration, not statistically significantly different from the control

human beta defensin 2 (GIGDPVTCLKSGAICHPVFCPRRYKQIGTCGLPGTKCCKKP; ends and bridges not checked; cysteine pairing not given here; listed as Homo sapiens) [hBD-2]
Increase of airway resistance (airway hyper responsiveness) (BALB/c mice; intranasal 0.4 mg/kg TID day 12 to day 14, 8 administrations): effectively inhibited increase of airway resistance | Decrease of pulmonary compliance (BALB/c mice; intranasal 0.4 mg/kg TID day 12 to day 14): effectively inhibited | IL-4 concentration in lung tissue homogenate (BALB/c mice; [3]): trend towards lowering | IL-5 concentration in lung tissue homogenate (BALB/c mice; [3]): trend towards lowering | IL-6 concentration in lung tissue homogenate (BALB/c mice; [3]): trend towards lowering | IL-9 concentration in lung tissue homogenate (BALB/c mice; [3]): trend towards lowering | IL-13 concentration in lung tissue homogenate (BALB/c mice; [3]): trend towards lowering | TNF-α concentration in lung tissue homogenate (BALB/c mice; [3]): trend towards lowering | Increase of airway resistance (airway hyper responsiveness) (BALB/c mice; oral 0.4 mg/kg TID day 12 to day 14, 8 administrations, 48 hours after HDM challenge): effectively inhibited increase of airway resistance | Decrease of pulmonary compliance (BALB/c mice; oral 0.4 mg/kg TID day 12 to day 14): effectively inhibited | IL-4 concentration in lung tissue homogenate (BALB/c mice; oral administration): complete normalization of cytokine concentrations | IL-5 concentration in lung tissue homogenate (BALB/c mice; oral administration): complete normalization of cytokine concentrations | IL-6 concentration in lung tissue homogenate (BALB/c mice; oral administration): complete normalization of cytokine concentrations | IL-9 concentration in lung tissue homogenate (BALB/c mice; oral administration): complete normalization of cytokine concentrations | IL-13 concentration in lung tissue homogenate (BALB/c mice; oral administration): complete normalization of cytokine concentrations | TNF-α concentration in lung tissue homogenate (BALB/c mice; oral administration): complete normalization of cytokine concentrations | Neutrophil counts in BALF (BALB/c mice; oral application, 48 hours post challenge): significantly inhibited neutrophil counts | Distance from the intestinal lining to bacterial population (lysis zone) [1]: profound effect on the distance | Weight gain [2]: gained significantly less weight than the HFD reference group
